Source: paper PMC8836832, “Novel Aurora A Kinase Inhibitor Fangchinoline Enhances Cisplatin–DNA Adducts and Cisplatin Therapeutic Efficacy in OVCAR-3 Ovarian Cancer Cells-Derived Xenograft Model” (International Journal of Molecular Sciences, 2022)
Counter-ions that a name gives are not always drawn.

Columns and labels:
SKOV3 = test: cells; set-up: MTT cell viability assay, absorbance at 575 nm, SK-OV-3 cells; details: Homo sapiens, SK-OV-3, 48 h
Protocol: (§1) The cell viability effects of 12 candidate compounds were evaluated by MTT assay and compared against a control group (medium containing 0.1% DMSO). The cells were seeded in 96-well plates and pre-cultured for 24 h (1 × 10^5 cells/well). The cells were then incubated for 48 h with the 12 identified compounds (at 0, 3.125, 6.25, 12.5, 25, 50, or 100 µM) dissolved in 0.1% DMSO. After 48 h, MTT solution (2.5 mg/mL in DMEM) was added to the cells and incubated for 1 h. DMSO was added to dissolve the purple crystals, and the absorbance values were measured at 575 nm using a spectrophotometer (SPECTROstar Nano; BMG LABTECH, Offenburg, Germany). Each treatment group has four biological replicates (n = 4). The IC50 values for each compound in each cell line were obtained using the results of the MTT assay and calculated using the GraphPad Prism 6 program (GraphPad Software, Inc., San Diego, CA, USA). A CI higher than 1.0 indicates an antagonistic effect, a CI equal to 1.0 indicates an additive effect, and a CI lower than 1.0 indicates a synergistic effect.

MDH2774 = test: cells; set-up: MTT cell viability assay, absorbance at 575 nm, MDAH 2774 cells; details: Homo sapiens, MDAH 2774, 48 h
Protocol: as §1

OVCAR3 = test: cells; set-up: MTT cell viability assay, absorbance at 575 nm, OVCAR-3 cells; details: Homo sapiens, OVCAR-3, 48 h
Protocol: as §1

ES2 = test: cells; set-up: MTT cell viability assay, absorbance at 575 nm, ES-2 cells; details: Homo sapiens, ES-2, 48 h
Protocol: as §1

[1] = biological target: T1, Aurora A kinase (Aurora A) (Homo sapiens, UniProt O14965); test: in vitro Aurora A kinase assay kit (Promega V1931, luminescence), dose-dependent at […]; supported by CETSA in MDAH […] and OVCAR-3 cells; type: biochemical
T1 construct: gene AURKA
T1 sequence (O14965 1-403): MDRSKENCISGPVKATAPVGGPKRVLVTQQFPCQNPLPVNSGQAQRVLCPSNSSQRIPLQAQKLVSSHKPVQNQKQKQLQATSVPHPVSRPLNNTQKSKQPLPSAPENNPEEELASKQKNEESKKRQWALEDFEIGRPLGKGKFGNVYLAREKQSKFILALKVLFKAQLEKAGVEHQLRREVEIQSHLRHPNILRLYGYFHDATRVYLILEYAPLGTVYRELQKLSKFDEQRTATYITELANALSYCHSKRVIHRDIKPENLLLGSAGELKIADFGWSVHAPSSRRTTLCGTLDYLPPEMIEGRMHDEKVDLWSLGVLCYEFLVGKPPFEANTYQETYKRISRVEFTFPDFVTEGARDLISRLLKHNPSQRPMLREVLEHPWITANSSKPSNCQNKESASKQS

Row | SMILES | IC50 (SKOV3) [µM] | IC50 (MDH2774) [µM] | IC50 (OVCAR3) [µM] | IC50 (ES2) [µM] | in vitro Aurora A kinase assay kit (Promega V1931, luminescence), dose-dependent [1]
1 | COc1cc2c(cc1OC)-c1cc3ccc(OC)c(OC)c3c[n+]1CC2 [Palmatine hydrochloride] | 59.33 ± 0.02 | 51.29 ± 0.34 | – | – | –
2 | C/C=C(\C)C(=O)N[C@@H](c1ccccc1)[C@@H](O)C(=O)O[C@H]1C[C@@]2(O)[C@@H](OC(=O)c3ccccc3)[C@@H]3[C@]4(OC(C)=O)CO[C@@H]4C[C@H](O)[C@@]3(C)C(=O)[C@H](OC(C)=O)C(=C1C)C2(C)C [Cephalomannine] | 10.79 ± 0.01 | 41.72 ± 0.01 | 41.78 ± 0.013 | – | –
3 | Cc1cc(O)c2c(c1)C(=O)c1cc(O)cc(O)c1C2=O [Emodin] | 34.7 ± 0.02 | 34.32 ± 0.021 | 22.64 ± 0.03 | 50.2 ± 2.09 | –
4 | O=C(/C=C/c1ccc(O)cc1)c1ccc(O)cc1O [Isoliquiritigenin] | 26 ± 0.44 | 50.36 ± 0.48 | 25.8 ± 1.21 | 51.46 ± 0.32 | –
5 | CC(=O)O[C@@]12CO[C@@H]1C[C@H](O)[C@@]1(C)C(=O)[C@H](O)C3=C(C)[C@@H](OC(=O)[C@H](O)[C@@H](NC(=O)OC(C)(C)C)c4ccccc4)C[C@@](O)([C@@H](OC(=O)c4ccccc4)[C@H]21)C3(C)C [Docetaxel] | 21.48 ± 0.01 | 24.55 ± 0.011 | 40.59 ± 0.015 | 50.38 ± 0.25 | –
6 | O=c1cc(-c2ccc(O)c(-c3c(O)cc(O)c4c(=O)cc(-c5ccc(O)cc5)oc34)c2)oc2cc(O)cc(O)c12 [Amentoflavone] | 78.9 ± 0.8 | 99.32 ± 0.03 | – | – | –
7 | CN1CCc2cc3c(cc2C(=O)Cc2cc4c(cc2C1)OCO4)OCO3 [Protopine] | 26.1 ± 0.49 | – | 25.4 ± 0.68 | – | –
8 | COc1ccc2cc1Oc1ccc(cc1)C[C@H]1c3cc(c(OC)cc3CCN1C)Oc1c(O)c(OC)cc3c1[C@H](C2)N(C)CC3 [fangchinoline] | 11.7 ± 1.2 | 8.71 ± 0.24 | 9.66 ± 0.3 | 25.1 ± 0.65 | Figure 2C shows that fangchinoline treatment significantly decreased Aurora A enzymatic activity in a dose-dependent manner.
9 | O=C(/C=C/c1ccc(O)cc1)CC(=O)/C=C/c1ccc(O)cc1 [Bisdemethoxycurcumin] | 25.1 ± 1.9 | 26 ± 0.53 | 24.9 ± 0.74 | 45.5 ± 0.5 | –
10 | O=C(O)c1cc(O)c2c(c1)[C@@H]([C@H]1c3cc(C(=O)O)cc(O)c3C(=O)c3c(O[C@@H]4O[C@H](CO)[C@@H](O)[C@H](O)[C@H]4O)cccc31)c1cccc(O[C@@H]3O[C@H](CO)[C@@H](O)[C@H](O)[C@H]3O)c1C2=O [Sennoside B] | > 100 | – | – | – | –
11 | COc1ccc2cc3[n+](cc2c1OC)CCc1cc2c(cc1-3)OCO2 [Berberine] | 39.38 ± 0.02 | 12.8 ± 1.24 | 20.56 ± 0.021 | 87.6 ± 0.02 | –
